Experiment: Henry solubility constant Hcp at 298.15 K (mol/(m3 Pa))
Settings: reference: Tse et al. (1992)
For `ClCC(Cl)(Cl)Cl` [1,1,1,2-tetrachloroethane], the “Henry solubility constant Hcp” value was 0.0045. With `CC(Cl)(Cl)Cl` [1,1,1-trichloroethane] the “Henry solubility constant Hcp” value was 0.00063. For `ClC(Cl)C(Cl)Cl` [1,1,2,2-tetrachloroethane], the “Henry solubility constant Hcp” value was 0.026. In the case of `ClCC(Cl)Cl` [1,1,2-trichloroethane], the “Henry solubility constant Hcp” value is reported as 0.011. For `C=C(Cl)Cl` [1,1-dichloroethene], the “Henry solubility constant Hcp” value was 0.00035. For `CC(Cl)CCl` (stereo not drawn) [1,2-dichloropropane], the “Henry solubility constant Hcp” value was 0.0038. With `ClC(Cl)Br` [bromodichloromethane] the “Henry solubility constant Hcp” value was 0.0048. In the case of `ClC(Br)Br` [dibromochloromethane], the “Henry solubility constant Hcp” value is reported as 0.0093. In the case of `BrCBr` [dibromomethane], the “Henry solubility constant Hcp” value is reported as 0.011. With `ClCCl` [dichloromethane] the “Henry solubility constant Hcp” value was 0.0039. With `ClC(Cl)(Cl)Cl` [tetrachloromethane] the “Henry solubility constant Hcp” value was 0.00038. With `BrC(Br)Br` [tribromomethane] the “Henry solubility constant Hcp” value was 0.019. For `ClC=C(Cl)Cl` [trichloroethene], the “Henry solubility constant Hcp” value was 0.0011.
